Measurements published in PMC9973015 (mBio, 2023).

How the values were obtained:
[1] = tested on: SARS-CoV-2 3CLpro L50F (USA-WA1 background); assay type: cell-based
[2] = tested on: SARS-CoV-2 3CLpro E166A L167F (USA-WA1 background); assay type: cell-based; conditions: for EC50: read-out: E166A L167V EC50
[3] = tested on: SARS-CoV-2 3CLpro L50F E166A L167F (USA-WA1 background); assay type: cell-based; conditions: read-out: L50F E166A L167V EC50
SARS-CoV-2 3CLpro E166V = conditions: cited from earlier work
[4] = molecular target: SARS-CoV-2 3CLpro L50F E166A L167F (Severe acute respiratory syndrome coronavirus 2, UniProt P0DTD1, E3429A/L3313F/L3430F); assay type: biochemical
[5] = tested on: SARS-CoV-2 L50F E166A L167F; assay type: cell-based

Row | SMILES | EC50 [1] | L50F FC, fold change of EC50 [1] | E166A L167V FC, fold change of EC50 [2] | EC50 [2] | EC50 [3] | level of resistance conferred by E166V (SARS-CoV-2 3CLpro E166V) | low concentration that partially rescues impaired enzymatic activity of the mutants [4] | EC50 [5]
1 | Cn1cnc(Cn2c(=O)[nH]/c(=N\c3cc4cn(C)nc4cc3Cl)n(Cc3cc(F)c(F)cc3F)c2=O)n1 [Ensitrelvir, ensitrelvir] | 0.24 µM | 0.24 [1.1] (0.18–0.31) | 8.0 [38] (2.8–12.7) (n = 4) | 8 µM | 9.3 µM | 23 |  | 
2 | COc1cccc2[nH]c(C(=O)N3C[C@@H]4CCC[C@@H]4[C@H]3C(=O)N[C@@H](C[C@@H]3CCCNC3=O)C(=O)CO)cc12 [ALG-097161, (1S,3aR,6aS)-N-((S)-4-Hydroxy-3-oxo-1-((S)-2-oxopiperidin-3-yl)butan-2-yl)-2-(4-methoxy-1H-indole-2-carbonyl)octahydrocyclopenta[c]pyrrole-1-carboxamide] | 0.98 µM |  |  | 2.9 µM | […] |  | […] | 
3 | COc1cccc2[nH]c(C(=O)N[C@@H](CC(C)C)C(=O)N[C@@H](C[C@@H]3CCNC3=O)C(=O)CO)cc12 [PF-00835231] |  |  |  |  |  |  | around 0.05 μM | 4.4 µM
4 | CC(C)(C)[C@H](NC(=O)C(F)(F)F)C(=O)N1C[C@H]2[C@@H]([C@H]1C(=O)N[C@H](C#N)C[C@@H]1CCNC1=O)C2(C)C [Nirmatrelvir, nirmatrelvir] | 0.16 µM |  |  | 1.1 µM | 3.2 µM | 100 |  | 6.1 µM
